Laboratory results as given in ChEMBL document CHEMBL1122714, “Pyrazolo[4,3-d]pyrimidine nucleosides. Synthesis and antiviral activity of 1-beta-D-ribofuranosyl-3-methyl-6-substituted-7H-pyrazolo[4,3-d]pyr imi din-7-ones” (1984).

Each molecule was assayed on Human alphaherpesvirus 1 (assay: In vitro antiviral activity by means of plaque-inhibition assay with monolayers of Vero cells infected with the MP strain of herpes simplex virus-1 (HSV-1)). Settings: Human alphaherpesvirus 1, Vero; read-out: ED50 (the source's name).
Assay type: functional

Row | Structure (SMILES) | EC50
1 | COc1ccc(Cn2cnc3c(C)nn(C4O[C@H](CO)[C@@H](O)[C@H]4O)c3c2=O)cc1 (some centres undefined) | 49.5 µM
2 | O=c1[nH]c(=O)n([C@H]2C[C@H](O)[C@@H](CO)O2)cc1I [IDOXURIDINE] | 1.2 µM
3 | Cc1nn(C2O[C@H](CO)[C@@H](O)[C@H]2O)c2c(=O)n(CCC(C)C)cnc12 (some centres undefined) | 350 µM
4 | Cc1nn(C2O[C@H](CO)[C@@H](O)[C@H]2O)c2c(=O)n(-c3ccc(Cl)cc3)cnc12 (some centres undefined) | 50 µM
5 | Cc1nn(C2O[C@H](CO)[C@@H](O)[C@H]2O)c2c(=O)n(Cc3ccccc3)cnc12 (some centres undefined) | 245 µM
6 | Cc1ccc(-n2cnc3c(C)nn(C4O[C@H](CO)[C@@H](O)[C@H]4O)c3c2=O)cc1 (some centres undefined) | 280 µM
7 | Cc1nn(C2O[C@H](CO)[C@@H](O)[C@H]2O)c2c(=O)n(CCc3ccccc3)cnc12 (some centres undefined) | 174 µM
8 | CCCCn1cnc2c(C)nn(C3O[C@H](CO)[C@@H](O)[C@H]3O)c2c1=O (some centres undefined) | 152 µM
9 | Cc1nn(C2O[C@H](CO)[C@@H](O)[C@H]2O)c2c(=O)n(Cc3ccc(Cl)cc3)cnc12 (some centres undefined) | 220 µM
